Consider 17 compounds from ChEMBL document CHEMBL1133499, “Design, synthesis, and in vitro biological activity of indole-based factor Xa inhibitors” (Bioorg Med Chem Lett, 2000).

Usually Ki stands for a measure of affinity in units of concentration, obtained from inhibition or displacement. Read a low Ki as a stronger hold on the target.

One experiment has as its target Prothrombin (Homo sapiens, UniProt P00734). In words: In vitro inhibition of human Coagulation factor II.
In the next experiment the target is Coagulation factor X (Homo sapiens, UniProt P00742). In words: In vitro inhibition of human Coagulation factor X.

The structures appear in SMILES notation.

Chain of Coagulation factor X (P00742 41-179 limits assumed): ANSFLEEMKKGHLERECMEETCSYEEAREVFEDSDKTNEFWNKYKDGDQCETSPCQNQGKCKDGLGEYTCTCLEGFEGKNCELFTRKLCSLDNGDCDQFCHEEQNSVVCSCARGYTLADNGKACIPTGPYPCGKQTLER
Chain of Coagulation factor X (P00742 235-488 limits assumed): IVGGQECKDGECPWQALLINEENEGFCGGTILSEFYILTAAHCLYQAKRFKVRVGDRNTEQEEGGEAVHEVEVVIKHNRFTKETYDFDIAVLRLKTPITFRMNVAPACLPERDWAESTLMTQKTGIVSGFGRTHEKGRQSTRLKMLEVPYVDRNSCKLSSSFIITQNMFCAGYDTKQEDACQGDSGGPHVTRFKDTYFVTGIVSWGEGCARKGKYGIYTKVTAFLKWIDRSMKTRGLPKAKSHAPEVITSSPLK

On Prothrombin, `N=C(N)c1ccc(CNc2ccc3ccn(Cc4ccc(C(=N)N)cc4)c3c2)cc1` registered an inhibition constant (Ki) of 3530 nM. Same read-out and setting: for `N=C(N)c1ccc(Oc2ccc3c4ccccc4n(Cc4ccc5ccc(C(=N)N)cc5c4)c3c2)cc1` the value was 210 nM.

As for `N=C(N)c1cccc(Oc2ccc3c4ccccc4n(Cc4ccc5ccc(C(=N)N)cc5c4)c3c2)c1`, the results for the Ki on Coagulation factor X and on Prothrombin were 0.9 nM and 170 nM, respectively. In the case of `COC(=O)c1cc2ccc(OC3CCN(C(C)=N)CC3)cc2n1Cc1ccc2ccc(C(=N)N)cc2c1`, the Ki was 0.2 nM at Coagulation factor X and 180 nM on Prothrombin. On the same counts, the results for `N=C(N)c1ccc(-n2ccc3ccc(NCc4ccc5ccc(C(=N)N)cc5c4)cc32)cc1` are 30 nM and 570 nM. As to `N=C(N)c1ccc(CNc2ccc3ccn(-c4ccc(C(=N)N)cc4)c3c2)cc1`, the Ki is 840 nM at Coagulation factor X and 4530 nM on Prothrombin. Regarding `CC(=N)N1CCC(Oc2ccc3cc(C(=O)O)n(Cc4ccc5ccc(C(=N)N)cc5c4)c3c2)CC1`, the Ki at Coagulation factor X was found to be 4.6 nM; at Prothrombin, 520 nM. For `CC(=N)N1CCC(Oc2ccc3cc(C(=O)N(C)C)n(Cc4ccc5ccc(C(=N)N)cc5c4)c3c2)CC1`, in that order: 3.5 nM and 1050 nM. On the same counts, the results for `N=C(N)c1ccc(-n2ccc3ccc(NC(=O)c4cccc(C(=N)N)c4)cc32)cc1` are 160 nM and 2320 nM. On the same counts, the results for `N=C(N)c1ccc2ccc(Cn3c4ccccc4c4ccc(OC5CCNCC5)cc43)cc2c1` are 4 nM and 90 nM. `CCOC(=O)c1cc2ccc(OC3CCN(C(C)=N)CC3)cc2n1Cc1ccc2ccc(C(=N)N)cc2c1`: the Ki came to 0.6 nM at Coagulation factor X and 360 nM at Prothrombin. Consider `CC(=N)N1CCC(Oc2ccc3cc(C(=O)NC(CC(=O)O)C(=O)O)n(Cc4ccc5ccc(C(=N)N)cc5c4)c3c2)CC1` (configuration not stated), for which the Ki amounted to 20 nM at Coagulation factor X and 2350 nM on Prothrombin. For `CC(=N)N1CCC(Oc2ccc3c4ccccc4n(Cc4ccc5ccc(C(=N)N)cc5c4)c3c2)CC1`, in that order: 1.6 nM and 40 nM. On the same counts, the results for `N=C(N)c1ccc(-n2ccc3ccc(NCc4cccc(C(=N)N)c4)cc32)cc1` are 340 nM and 3780 nM.

With `N=C(N)c1ccc(-n2c3ccccc3c3ccc(OCc4ccc5ccc(C(=N)N)cc5c4)cc32)cc1`, the Ki at Coagulation factor X came to 60 nM; at Prothrombin, 1990 nM. For `N=C(N)c1cccc(CNc2ccc3ccn(-c4cccc(C(=N)N)c4)c3c2)c1`, the values for the Ki on Coagulation factor X and at Prothrombin were 190 nM and 4000 nM, respectively. For `CN(C)C(=O)COc1ccc2c3ccccc3n(Cc3ccc4ccc(C(=N)N)cc4c3)c2c1`, in that order: 5 nM and 50 nM.
